Assay results: the NIST ThermoML archive (doi:10.1021/je300339q)

Experiments:
[1] = mn = molality of the nth substance listed, in mol/kg; conditions: 101 kPa, Liquid, Direct current cell with electrodes
[2] = 101.33 kPa, Liquid; for viscosity: Capillary tube (Ostwald / Ubbelohde) method; for mass density: Vibrating tube method

CCCCn1cc[n+](CCC)c1.[Br-] [1-butyl-3-propyl-1H-imidazolium bromide] + CC#N
molar conductivity [S·m2/mol], [1]
Conditions | 308 K | 313 K | 318 K
m1 = 0.01014 | 0.00955 | 0.010075 | 0.01063
m1 = 0.01352 | 0.00916 | 0.009604 | 0.010128
m1 = 0.01803 | 0.008751 | 0.009155 | 0.009627
m1 = 0.02405 | 0.008325 | 0.008691 | 0.009114
m1 = 0.0275 | 0.008123 | – | –
m1 = 0.03209 | 0.007883 | 0.008213 | 0.008595
m1 = 0.04281 | 0.007424 | 0.007724 | 0.008054
m1 = 0.04875 | – | 0.007467 | 0.007807
m1 = 0.05714 | 0.006944 | 0.007222 | 0.007523
m1 = 0.0656 | 0.006707 | 0.006956 | 0.007255
m1 = 0.07628 | 0.006433 | 0.006701 | 0.006968
m1 = 0.08982 | 0.006124 | 0.006393 | 0.006648
m1 = 0.09987 | 0.00592 | 0.006199 | 0.006435

CCCCn1cc[n+](CCC)c1.[Br-] [1-butyl-3-propyl-1H-imidazolium bromide] + CO
molar conductivity [S·m2/mol], [1]
Conditions | 308 K | 313 K | 318 K
m1 = 0.005755 | 0.006546 | – | 0.00748
m1 = 0.007673 | 0.006395 | 0.006815 | 0.00729
m1 = 0.01023 | 0.006239 | 0.006658 | 0.007119
m1 = 0.01364 | 0.006083 | 0.006493 | 0.006946
m1 = 0.01819 | 0.005932 | 0.006333 | 0.006781
m1 = 0.02425 | 0.005792 | 0.006185 | 0.006627
m1 = 0.03234 | 0.005668 | 0.006052 | 0.006491
m1 = 0.04311 | 0.005561 | 0.005936 | 0.006371
m1 = 0.05749 | 0.005468 | 0.005832 | 0.006257
m1 = 0.07665 | 0.005372 | 0.005703 | 0.006123
m1 = 0.09017 | 0.005304 | 0.005611 | 0.006016
m1 = 0.1002 | 0.005238 | 0.00554 | 0.005923

CCCCn1cc[n+](CCC)c1.[Br-] [1-butyl-3-propyl-1H-imidazolium bromide] + O
molar conductivity [S·m2/mol], [1]
Conditions | 308 K | 313 K | 318 K
m1 = 0.005651 | 0.012224 | 0.013136 | 0.01387
m1 = 0.007536 | 0.012106 | 0.013013 | 0.01376
m1 = 0.01005 | 0.011972 | 0.012872 | 0.013625
m1 = 0.01341 | 0.011818 | 0.012712 | 0.013474
m1 = 0.0179 | 0.011642 | 0.012531 | 0.013305
m1 = 0.02389 | 0.011441 | 0.01232 | 0.013116
m1 = 0.0319 | 0.011212 | 0.012091 | 0.012905
m1 = 0.04262 | 0.01095 | 0.011824 | 0.012669
m1 = 0.05696 | 0.01065 | 0.011518 | 0.012401
m1 = 0.07621 | 0.010304 | 0.011165 | 0.012094
m1 = 0.08987 | 0.010084 | 0.01094 | 0.011898
m1 = 0.1 | 0.00996 | 0.0108 | 0.01177

CC#N [acetonitrile]
[2]
Conditions | mass density [kg/m3] | viscosity [mPa·s]
308.15 K | 765.64 | 0.3125
313.15 K | 759.7 | 0.3042
318.15 K | 755.01 | 0.2903

CO [methanol]
[2]
Conditions | mass density [kg/m3] | viscosity [mPa·s]
308.15 K | 777.18 | 0.4747
313.15 K | 772.5 | 0.444
318.15 K | 767.7 | 0.4185
